From the NIST ThermoML archive (doi:10.1016/j.jct.2011.07.021)

What was measured:
[1] = refractive index (Na D-line) (dimensionless); xn = mol fraction of the nth substance listed; settings: 101 kPa, Liquid, Standard Abbe refractometry
[2] = relative permittivity at zero frequency (dimensionless); xn = mol fraction of the nth substance listed; settings: 101 kPa, Liquid, Parallel plate capacitor

CCC(O)CO (configuration not stated) [1,2-butanediol] + C1COCCO1
Settings	refractive index, 298.2 K	refractive index, 308.2 K	refractive index, 318.2 K	relative permittivity at zero frequency, 298.2 K	relative permittivity at zero frequency, 308.2 K	relative permittivity at zero frequency, 318.2 K
[1], x1 = 0.099	1.4212	1.416	1.4103	–	–	–
[1], x1 = 0.148	1.4221	1.4166	1.4115	–	–	–
[1], x1 = 0.197	1.4227	1.4173	1.4124	–	–	–
[1], x1 = 0.246	1.4236	1.4182	1.4133	–	–	–
[1], x1 = 0.299	1.4242	1.4189	1.4142	–	–	–
[1], x1 = 0.349	1.4253	1.42	1.415	–	–	–
[1], x1 = 0.401	1.4259	1.4208	1.4162	–	–	–
[1], x1 = 0.448	1.4268	1.4218	1.4168	–	–	–
[1], x1 = 0.51	1.428	1.4231	1.4177	–	–	–
[1], x1 = 0.55	1.4287	1.4237	1.4191	–	–	–
[1], x1 = 0.611	1.4297	1.4248	1.4203	–	–	–
[1], x1 = 0.685	1.4311	1.4263	1.4218	–	–	–
[1], x1 = 0.788	1.433	1.4285	1.4236	–	–	–
[1], x1 = 0.855	1.4341	1.4295	1.4253	–	–	–
[1], x1 = 0.907	1.4353	1.4307	1.4265	–	–	–
[1], x1 = 0.96	1.436	1.432	1.4278	–	–	–
[1], x1 = 1	1.4372	1.433	1.4288	–	–	–
[2], x1 = 0.099	–	–	–	3.127	3.015	2.92
[2], x1 = 0.148	–	–	–	3.659	3.496	3.359
[2], x1 = 0.197	–	–	–	4.254	4.064	3.875
[2], x1 = 0.246	–	–	–	4.882	4.632	4.406
[2], x1 = 0.299	–	–	–	5.685	5.407	5.046
[2], x1 = 0.349	–	–	–	6.472	6.079	5.696
[2], x1 = 0.401	–	–	–	7.376	6.854	6.419
[2], x1 = 0.448	–	–	–	8.243	7.732	7.193
[2], x1 = 0.51	–	–	–	9.466	8.817	8.122
[2], x1 = 0.55	–	–	–	10.263	9.592	8.783
[2], x1 = 0.611	–	–	–	11.646	10.84	9.908
[2], x1 = 0.685	–	–	–	13.401	12.41	11.301
[2], x1 = 0.788	–	–	–	16.007	14.739	13.469
[2], x1 = 0.855	–	–	–	17.761	16.335	15.027
[2], x1 = 0.907	–	–	–	19.272	17.748	16.307
[2], x1 = 0.96	–	–	–	20.867	19.214	17.628
[2], x1 = 1	–	–	–	22.143	20.365	18.661

CCCCC(CC)CO (configuration not stated) [2-ethyl-1-hexanol] + CCC(O)CO
Settings	refractive index, 298.2 K	refractive index, 308.2 K	refractive index, 318.2 K	relative permittivity at zero frequency, 298.2 K	relative permittivity at zero frequency, 308.2 K	relative permittivity at zero frequency, 318.2 K
[1], x2 = 0	1.4293	1.4252	1.4213	–	–	–
[1], x2 = 0.111	1.4295	1.4254	1.4215	–	–	–
[1], x2 = 0.199	1.4295	1.4257	1.4219	–	–	–
[1], x2 = 0.291	1.4299	1.4259	1.4222	–	–	–
[1], x2 = 0.345	1.4301	1.4261	1.4225	–	–	–
[1], x2 = 0.399	1.4303	1.4265	1.4228	–	–	–
[1], x2 = 0.448	1.4307	1.4269	1.423	–	–	–
[1], x2 = 0.501	1.431	1.4272	1.4234	–	–	–
[1], x2 = 0.563	1.4313	1.4275	1.4237	–	–	–
[1], x2 = 0.625	1.432	1.4281	1.4241	–	–	–
[1], x2 = 0.667	1.4323	1.4284	1.4245	–	–	–
[1], x2 = 0.702	1.4327	1.4289	1.4249	–	–	–
[1], x2 = 0.75	1.4335	1.4295	1.4253	–	–	–
[1], x2 = 0.814	1.4342	1.4303	1.4259	–	–	–
[1], x2 = 0.897	1.4354	1.4314	1.427	–	–	–
[2], x2 = 0	–	–	–	7.353	6.362	5.52
[2], x2 = 0.111	–	–	–	7.683	6.922	6.232
[2], x2 = 0.199	–	–	–	8.152	7.52	6.851
[2], x2 = 0.291	–	–	–	8.91	8.32	7.636
[2], x2 = 0.345	–	–	–	9.464	8.8	8.14
[2], x2 = 0.399	–	–	–	10.065	9.44	8.701
[2], x2 = 0.448	–	–	–	10.678	9.995	9.312
[2], x2 = 0.501	–	–	–	11.404	10.69	9.954
[2], x2 = 0.563	–	–	–	12.382	11.556	10.873
[2], x2 = 0.625	–	–	–	13.435	12.625	11.819
[2], x2 = 0.667	–	–	–	14.198	13.357	12.559
[2], x2 = 0.702	–	–	–	14.955	14.023	13.21
[2], x2 = 0.75	–	–	–	15.885	15.005	14.022
[2], x2 = 0.814	–	–	–	17.454	16.338	15.347
[2], x2 = 0.897	–	–	–	19.447	18.115	16.989
